The source of these data is patent US20230219949A1, “INHIBITORS OF (ALPHA-V)(BETA-6) INTEGRIN” (priority 2018, published 2023).

Values joined by “and” are separate entries in the source; they are usually repeats but may differ in a detail not shown here. Identical values can stand only once. Some results are limits rather than exact numbers.

One data set has as its target integrin αvβ6 (Homo sapiens, UniProt P06756+P18564). Description: Fluorescence polarization assay for αvβ6 binding (competition with fluorescein-labeled peptide GRGDLGRL). As to conditions: fluorescence polarization assay of Example 12; 10 nM integrin αvβ6, 3 nM labeled peptide; read-out: avb6. (IC50). Here is the method:
Fluorescence Polarization (FP) assays were used to measure compound activity through binding competition with the fluorescein-labeled peptide GRGDLGRL. In the assay, 10 nM of integrin αvβ6 was incubated with the test compound in 2 mM manganese chloride, 0.1 mM calcium chloride, 20 mM HEPES buffer at pH 7.3, 150 mM sodium chloride, 0.01% Triton X-100, 2% DMSO, and 3 nM of the fluorescein-labeled peptide. The assays were run in 384-well plates. For both assay versions, the integrin protein was pre-incubated with the test compounds for 15 minutes at 22° C. before the fluorescein-labeled peptide was added. After the fluorescein-labeled peptide was added, the assay was incubated at 22° C. for 1 hour and fluorescence polarization was measured. IC50 values were determined by nonlinear regression, 4-parameter curve fitting (FIG. 1).
In general terms: In fluorescence polarisation assays a small probe gives low polarisation when free and higher when bound to something large.

In data set [1] the test system is Madin-Darby Canine Kidney (MDCK) cells. Briefly: MDCK in vitro permeability assay, wild type MDCK cells with no inhibitor (A→B). In kind it is in vitro ADME. As to conditions: no Pgp inhibitor, apical to basolateral. Here is the method:
(§1) Compounds were tested for permeability in an MDCK permeability assay. This assay measures the ability of compounds to cross a layer of Madin-Darby Canine Kidney (MDCK) cells from the apical to basolateral side (A→B). This measurement is predictive of the ability of compounds to be absorbed in the gut following oral dosing, an essential characteristic of an orally administered small molecule integrin inhibitor drug.
(§2) The assay is run in two formats. One uses wild type MDCK cells with no inhibitor. This method works well in determining the passive permeability of compounds with low efflux by P-glyocprotein (Pgp), and was used to assess permeability of a Reference Compound having the chemical formula shown below.
(§3) Cell Culture and Maintenance: • Cell stock cultures (MDCK or MDCK MDR1) are maintained in MEM+10% FBS+1% NEAA, grown in 75 cm^2 tissue culture treated flasks and split (passed) 2 times weekly to maintain desired confluence. • For maintenance passage: trypsinized cells are routinely distributed into new flasks at a standard passage ratio of 1:20.
(§4) Seeding assay plates: MDCK assay plates are seeded with MDCK or MDCK MCR1 cells 3-4 days prior to running the assay. 24-well plates are seeded at a cell density of 0.88×10^5/well in a 400 μL apical chamber volume (2.2×10^5/mL) with a […] volume of growth medium to the 24-well basal chamber. […]

Assay in data set [2]: as above
Format: in vitro ADME, Canine. As to conditions: dog, no Pgp inhibitor, apical to basolateral. Here is the method: as §1, §2, §3, §4

A word on the IC50: it is the point on the concentration scale where inhibition reaches its midpoint. Broadly, the Papp A→B is how fast a substance crosses the layer from the apical side.

Chain of integrin αvβ6 (P06756 31-992 limits assumed): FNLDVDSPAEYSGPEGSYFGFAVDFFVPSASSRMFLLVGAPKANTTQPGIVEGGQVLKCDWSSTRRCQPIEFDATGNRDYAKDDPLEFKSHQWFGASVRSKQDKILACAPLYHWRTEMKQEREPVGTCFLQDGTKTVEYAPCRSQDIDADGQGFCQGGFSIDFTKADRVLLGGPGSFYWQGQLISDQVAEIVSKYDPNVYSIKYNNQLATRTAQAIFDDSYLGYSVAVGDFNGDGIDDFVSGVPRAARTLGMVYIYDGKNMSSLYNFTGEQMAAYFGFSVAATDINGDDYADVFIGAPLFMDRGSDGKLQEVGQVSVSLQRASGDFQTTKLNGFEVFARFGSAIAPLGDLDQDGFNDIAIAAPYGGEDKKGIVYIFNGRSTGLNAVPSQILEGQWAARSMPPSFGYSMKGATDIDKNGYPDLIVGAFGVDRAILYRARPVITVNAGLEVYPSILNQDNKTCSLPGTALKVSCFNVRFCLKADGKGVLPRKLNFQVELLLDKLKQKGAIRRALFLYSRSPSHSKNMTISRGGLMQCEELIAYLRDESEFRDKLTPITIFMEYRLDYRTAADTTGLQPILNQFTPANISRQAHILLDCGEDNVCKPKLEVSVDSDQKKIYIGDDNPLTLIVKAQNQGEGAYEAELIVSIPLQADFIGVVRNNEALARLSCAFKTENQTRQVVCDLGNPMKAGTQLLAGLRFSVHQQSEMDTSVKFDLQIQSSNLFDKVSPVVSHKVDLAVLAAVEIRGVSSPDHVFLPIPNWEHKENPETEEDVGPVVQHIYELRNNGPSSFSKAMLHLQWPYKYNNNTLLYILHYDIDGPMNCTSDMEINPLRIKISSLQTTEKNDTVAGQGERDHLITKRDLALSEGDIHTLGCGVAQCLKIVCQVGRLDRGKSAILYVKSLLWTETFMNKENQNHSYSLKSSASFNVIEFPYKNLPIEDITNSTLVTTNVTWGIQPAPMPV
Chain of integrin αvβ6 (P18564 22-709 limits assumed): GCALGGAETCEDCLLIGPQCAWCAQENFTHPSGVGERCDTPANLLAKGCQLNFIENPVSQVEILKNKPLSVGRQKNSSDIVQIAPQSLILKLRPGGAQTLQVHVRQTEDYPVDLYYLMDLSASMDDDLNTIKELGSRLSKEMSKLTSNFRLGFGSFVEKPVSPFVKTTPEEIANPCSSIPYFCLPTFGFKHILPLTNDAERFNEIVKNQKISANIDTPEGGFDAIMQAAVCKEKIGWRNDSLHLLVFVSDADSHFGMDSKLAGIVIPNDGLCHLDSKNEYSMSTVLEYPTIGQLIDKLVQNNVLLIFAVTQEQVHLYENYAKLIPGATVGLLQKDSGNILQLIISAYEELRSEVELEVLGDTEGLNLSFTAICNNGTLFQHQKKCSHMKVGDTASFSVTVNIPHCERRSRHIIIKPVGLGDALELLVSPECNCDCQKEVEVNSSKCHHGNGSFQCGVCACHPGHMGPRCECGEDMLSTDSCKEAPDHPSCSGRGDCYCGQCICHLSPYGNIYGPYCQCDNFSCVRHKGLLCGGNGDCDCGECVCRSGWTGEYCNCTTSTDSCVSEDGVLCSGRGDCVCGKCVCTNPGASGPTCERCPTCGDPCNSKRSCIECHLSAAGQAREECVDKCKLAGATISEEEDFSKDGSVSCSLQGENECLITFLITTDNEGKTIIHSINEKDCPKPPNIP

Consider `O=C(O)CN1CCC(C(=O)N2CCC(c3ccc4c(n3)NCCC4)CC2)CC1` [Reference Compound], for which, on integrin αvβ6, the IC50 was ~96.5 nM and 96.5 nM. Besides, the “MDCK (A−>B)” value in data set [1] is listed as “less than 0.23”. Also, the Papp A→B at 90 min, 5 μM in data set [2] is under 0.23 ×10⁻⁶ cm/s.
